US20140243374A1, “Novel Sulfonamides” (The Brigham and Women's Hospital, Inc., priority 2011, published 2014)
Values joined by “and” are separate entries in the source; they are usually repeats but may differ in a detail not shown here. Equal values may be shown once.

Columns and labels:
[1] = molecular target: T1, γ-secretase (cleavage of APP, Aβ42) (Homo sapiens, UniProt P49768); experiment: Aβ (1-42) cellular assay (Aβ ELISA, HEK AP-GL-T1 6 cells); assay type: cell-based; conditions: for IC50: cellular Aβ42 ELISA, 24 h compound treatment; for inhibition at 1 µM: at 1 μM (concentration in brackets)
T1 construct: endogenous in cells; host or cells: HEK AP-GL-T16 luciferase reporter cells (tetracycline-induced APP substrate)
Description: Aβ (1-42) Cellular Assay.
The following assay was used to determine the extent to which the compounds of interest inhibit the cleavage of APP in vivo. AβELISA is a commercial fluorometric kit from Biosource (Invitrogen 89344). Luciferase reporter HEK AP-GL-T1 6 cells were plated at 50,000 cells/well in 96 well plates in DMEM media containing 10% tetracyclin free […], 250 μg/mL zeocin, 200 μg/mL hygromycin, and 5 μg/mL blasticidin. Compounds were added 24 h after plating and APP processing is induced simultaneously by addition of tetracycline. Following a 24 h compound treatment, […] of conditioned cell media is collected, mixed with ELISA diluent buffer containing 2 mM AEBSF and 12 mM o-phenanthroline, and immediately frozen at −80° C. For the ELISA, the samples were brought to room temperature and spun at 5000 rpm for 5 min. Samples ([…]) are incubated in the ELISA plate with […] detection antibody on a shaker at room temperature for 3 h. Wells were then washed 4 times with wash buffer and 100 mL of secondary antibody are added and incubated at room temperature for 30 min. Wells were again washed 4 times with wash buffer and 100 mL of fluorescent substrate solution are added. After 30 minutes of incubation, fluorescent signals are determine on a Gemini reader at ex 460 nm and em 560 nm. The amount of Aβ levels in each sample was determined from a standard curve generated by known concentrations of Aβ peptide run simultaneously with the samples.

[2] = molecular target: T2, γ-secretase (cleavage of Notch) (Homo sapiens, UniProt P49768); experiment: Notch cellular assay (luciferase reporter U2OS cells); assay type: cell-based; conditions: for IC50: U2OS luciferase reporter cells; for Notch Luc/Aβ42: ratio Notch luciferase IC50 to Aβ42 IC50
T2 construct: endogenous in cells; host or cells: U2OS luciferase reporter cells with Tet-on Notch
Description: This assay was used to determine if the compounds of interest inhibit the cleavage of Notch by γ-secretase in cells. A U2OS cell line in which the luciferase expression is adjusted by active Notch was used in this assay Notch expression is adjusted using Tet-on promoter. Luciferase reporter U2OS cells are plated at 1000 cells/well in 96 well plates in DMEM containing 100 μg/mL hygromycin, 15 μg/mL blasticidin and 1 μg/mL Tetracycline. Compounds were added 24 h after plating and the cells are lysed 6 days after adding compounds. Luciferase expression was performed using Steady-Glo Luciferase Assay System (Promega).

[3] = molecular target: T3, γ-secretase (Notch cleavage activity) (Homo sapiens, UniProt P49768); experiment: Cleaved Notch1 Sandwich ELISA (SUP-T1 cell line); assay type: cell-based; conditions: for IC50: SUP-T1 cells, 16 h; for Notch Elisa/Aβ42: ratio Notch Elisa IC50 to Aβ42 IC50
T3 construct: endogenous in cells; host or cells: SUP-T1 cells
Description: Cleaved Notch1 Sandwich ELISA.
This assay was used to determine if the compounds of interest inhibit the Notch cleavage activity of γ-secretase in SUP-T1 cell line, which endogenously expresses a truncated Notch receptor fragment that is a viable gamma-secretase substrate. The base medium for this cell line is ATCC-formulated RPMI-1640 Medium with fetal bovine serum to a final concentration of 10%. Prepare dilution of SUP-T1 cells in complete growth medium to 1.0×10^6 cells/mL, seed 1.5 mL per well of each cell dilution into a 6-well plate. Collect cells treated with serial diluted compounds in DMSO after 16 h, then using equal amount of protein isolated from samples to measure Notch intracellular cleavage by PathScan® Sandwich ELISA Kit (Cell Signaling Tech 7194S).

IC50 [1] | melting point [°C] | inhibition at 1 µM ([1]; read-out: Aβ42 % Inh) [%] | Structure (SMILES) | further results
301 nM | 176 to 177 | – | N#Cc1ccc(CN(C2CCCC2)S(=O)(=O)c2ccc(Cl)cc2)c(F)c1 [Example 28, 4-Chloro-N-(4-cyano-2-fluorobenzyl)-N-cyclopentylbenzenesulfonamide] | –
– | 174 to 176 | 0 | COc1ccc(CN(C2CCOCC2)S(=O)(=O)c2ccc(Cl)cc2)cc1C(=O)O [Example 8, 5-((4-Chloro-N-(tetrahydro-2H-pyran-4-yl)phenylsulfonamido)methyl)-2-methoxy-benzoic acid] | –
519 nM | 111 to 112 | – | O=C(O)c1ccc(CN(C2CCCCC2)S(=O)(=O)c2ccc(Cl)cc2)c(F)c1F [Example 71, 4-((4-Chloro-N-cyclohexylphenylsulfonamido)methyl)-2,3-difluorobenzoic acid] | –
– | 124 to 127 | 0 | CSc1ccc(CN(C2CCOCC2)S(=O)(=O)c2ccc(Cl)cc2)cc1 [Example 10, 4-Chloro-N-(4-(methylthio)benzyl)-N-(tetrahydro-2H-pyran-4-yl)benzene-sulfonamide] | –
– | 218 to 219 | 6 | O=C(O)c1ccc(CN(C2CCOCC2)S(=O)(=O)c2ccc(Cl)cc2)cc1 [Example 1, 4-((4-Chloro-N-(tetrahydro-2H-pyran-4-yl)phenylsulfonamido)methyl)benzoic acid] | –
– | 123 to 125 | 0 | O=S(=O)(c1ccc(Cl)cc1)N(Cc1ccc(OC2CCOCC2)nc1)C1CCOCC1 [Example 13, 4-Chloro-N-(tetrahydro-2H-pyran-4-yl)-N-((6-(tetrahydro-2H-pyran-4-yloxy)-pyridin-3-yl)methyl)benzenesulfonamide] | –
– | 178 to 179 | 0 | Cc1ccc(S(=O)(=O)N(Cc2ccc(C#N)cc2F)C2CCCC2)cc1 [Example 29, N-(4-Cyano-2-fluorobenzyl)-N-cyclopentyl-4-methylbenzenesulfonamide] | –
– | 115 to 117 | 94 | COC(=O)c1ccc(CN(CC2CCOCC2)S(=O)(=O)c2ccc(Cl)cc2)cc1 [Example 18, Methyl 4-((4-chloro-N-((tetrahydro-2H-pyran-4-yl)methyl)phenylsulfonamido)-methyl)benzoate] | –
– | 146 to 147 | 37 | Cc1ccc(S(=O)(=O)N(Cc2ccc(C#N)cc2F)C2CCC2)cc1 [Example 27, N-(4-Cyano-2-fluorobenzyl)-N-cyclobutyl-4-methylbenzenesulfonamide] | –
– | 218 to 219 | 15 | O=C(O)c1ccc(CN([C@H]2CCCC[C@@H]2O)S(=O)(=O)c2ccc(Cl)cc2)cc1 [Example 30, 4-((4-Chloro-N-((1S,2S)-2-hydroxycyclohexyl)phenylsulfonamido)methyl)benzoic acid] | –
– | 118 to 119 | 0 | COC(=O)c1cc(CN(CC2CCOCC2)S(=O)(=O)c2ccc(Cl)cc2)ccc1OC [Example 16, Methyl 5-((4-chloro-N-((tetrahydro-2H-pyran-4-yl)methyl)phenylsulfonamido)-methyl)-2-methoxybenzoate] | –
17.8 nM | 162 to 164 | – | COC(=O)c1ccc(CN(C2CCCCC2O)S(=O)(=O)c2ccc(Cl)cc2)cc1 (centres unmarked) [Example 25, Methyl 4-((4-chloro-N-(2-hydroxycyclohexyl)phenylsulfonamido)methyl)benzoate] | –
0.7 nM | – | – | COC[C@@H](C)NC(=O)c1ccc(CN(C2CCCCC2C)S(=O)(=O)c2ccc(Cl)cc2)cc1 (stereo partly drawn) [Example 46, 4-((4-Chloro-N-(2-methylcyclohexyl)phenylsulfonamido)methyl)-N-((R)-1-methoxypropan-2-yl)benzamide] | IC50 [2]: 303 nM; Notch Luc/Aβ42 ([2]; listed as 46/1221): 432; IC50 [3]: 710 nM
– | 188 to 190 | 13 | O=C(O)c1ccc(CN(CC2CCOCC2)S(=O)(=O)c2ccc(Cl)cc2)cc1 [Example 19, 4-((4-Chloro-N-((tetrahydro-2H-pyran-4-yl)methyl)phenylsulfonamido)methyl)-benzoic acid] | –
50.1 nM and 79.6 nM and 98.5 nM | – | – | O=C(O)c1ccc(CN(C2CCCCC2F)S(=O)(=O)c2ccc(Cl)cc2)cc1 (centres unmarked) [Example 57, 4-((4-Chloro-N-(2-fluorocyclohexyl)phenylsulfonamido)methyl)benzoic acid] | IC50 [2]: 28600 nM; Notch Luc/Aβ42 ([2]; listed as 57/1231): 376; IC50 [3]: 1070 nM; Notch Elisa/Aβ42 ([3]; listed as 57/1231): 14
7.32 nM | – | – | CC1CCCC(N(Cc2ccc(C(=O)N[C@H](C)CO)cc2)S(=O)(=O)c2ccc(Cl)cc2)C1 (stereo partly drawn) [Example 50, 4-((4-Chloro-N-(3-methylcyclohexyl)phenylsulfonamido)methyl)-N—((R)-1-hydroxypropan-2-yl)benzamide] | IC50 [2]: 10600 nM; Notch Luc/Aβ42 [2]: 1456; IC50 [3]: 2160 nM; Notch Elisa/Aβ42 [3]: 309
– | 218 to 220 | 0 | O=C(O)c1ccc(CN(C2CCCCC2)S(=O)(=O)c2ccc(F)cc2)cc1 [Example 9, 4-((N-cyclohexyl-4-fluorophenylsulfonamido)methyl)benzoic acid] | –
– | 158 to 160 | 0 | CS(=O)(=O)c1ccc(CN(C2CCOCC2)S(=O)(=O)c2ccc(Cl)cc2)cc1 [Example 11, 4-Chloro-N-(4-(methylsulfonyl)benzyl)-N-(tetrahydro-2H-pyran-4-yl)benzene-sulfonamide] | –
– | 158 to 160 | – | O=C(O)c1ccc(CN(C2CCCCC2Cl)S(=O)(=O)c2ccc(Cl)cc2)cc1 (centres unmarked) [Example 81, 4-((4-Chloro-N-(2-chlorocyclohexyl)phenylsulfonamido)methyl)benzoic acid] | inhibition at 30 µM ([1]; at 30 μM (concentration in brackets), read-out: Aβ42 % Inh): 0%
– | 67 to 69 | 0 | CC[C@H](C1CCCC1)N(Cc1ccc(C(=O)O)cc1)S(=O)(=O)c1ccc(Cl)cc1 [Example 23, (R)-4-((4-Chloro-N-(1-cyclopentylpropyl)phenylsulfonamido)methyl)benzoic acid] | –
– | 81 to 83 | 0 | CC[C@H](C1CCCC1)N(Cc1ccc(C(=O)OC)cc1)S(=O)(=O)c1ccc(Cl)cc1 [Example 22, (R)-Methyl 4-((4-chloro-N-(1-cyclopentylpropyl)phenylsulfonamido)methyl)benzoate] | –
– | 125 to 127 | 54 | N#Cc1ccc(CN(C2CCC2)S(=O)(=O)c2ccc(Cl)cc2)c(F)c1 [Example 26, 4-Chloro-N-(4-cyano-2-fluorobenzyl)-N-cyclobutylbenzenesulfonamide] | –
199 nM | 150 to 152 | – | COC(=O)c1ccc(CN([C@H]2CCCC[C@@H]2O)S(=O)(=O)c2ccc(Cl)cc2)cc1 [Example 31, Methyl 4-((4-chloro-N-((1S,2S)-2-hydroxycyclohexyl)phenylsulfonamido)methyl)benzoate] | –
0.873 nM | – | – | CC1CCCCC1N(Cc1ccc(C(=O)NC[C@H](C)O)cc1)S(=O)(=O)c1ccc(Cl)cc1 (stereo partly drawn) [Example 47, 4-((4-Chloro-N-(2-methylcyclohexyl)phenylsulfonamido)methyl)-N—((S)-2-hydroxypropyl)benzamide] | IC50 [2]: 690 nM; Notch Luc/Aβ42 [2]: 791; IC50 [3]: 350 nM; Notch Elisa/Aβ42 [3]: 401
